Test results taken from patent US8192962B2, “Processes for detecting toxic substances” (Daikin Industries, Ltd., priority 2001, dated 2012).

Tested on: Transport facilitation protein genes
Test: DNA chip mRNA expression in yeast, transport facilitation protein genes (Table 5)
Type: cell-based, Saccharomyces cerevisiae S288C
How it was run: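 First, S288C yeast grown in YPD at 25° C. are dosed in log phase with one toxicant (growth-inhibiting, not lethal) for 2 h. Next, total RNA is extracted and poly(A) mRNA isolated and reverse-transcribed with Cy3/Cy5-dUTP. Finally, whole-genome chip fluorescence is read relative to unexposed cells.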

Measured: The level of expressed mRNA in the presence of chemical substance/The level of expressed mRNA in the absence of chemical substance

COc1cc(CNC(=O)CCCCC=CC(C)C)ccc1O [(12), 8-methyl-N-vanillyl-6-nonenamide]
1.3: yeast gene YBR052C | yeast gene YCL038C | yeast gene YCR098C | yeast gene YLL028W
1.6: yeast gene YJL034W
1.2: yeast gene YDL198C | yeast gene YFL054C | yeast gene YGR197C | yeast gene YLR378C
1.4: yeast gene YDR345C | yeast gene YHL035C | yeast gene YHR175W
4.0: yeast gene YOR153W
2.6: yeast gene YHL047C
0.9: yeast gene YBL030C | yeast gene YBR127C | yeast gene YBR207W | yeast gene YBR295W | yeast gene YDL128W | yeast gene YDR387C | yeast gene YDR497C | yeast gene YEL027W | yeast gene YFL011W | yeast gene YFL050C | yeast gene YFL055W | yeast gene YGL006W | yeast gene YGR055W | yeast gene YHR094C | yeast gene YIL006W | yeast gene YIL022W | yeast gene YIL088C | yeast gene YJR106W | yeast gene YLR348C | yeast gene YOL119C | yeast gene YOL156W | yeast gene YOR130C | yeast gene YPL265W
0.4: yeast gene YJL212C
2.4: yeast gene YGL008C | yeast gene YGR281W
1.0: yeast gene YBL099W | yeast gene YBR132C | yeast gene YBR293W | yeast gene YBR294W | yeast gene YCR024C-A | yeast gene YDL245C | yeast gene YDR270W | yeast gene YDR342C | yeast gene YDR343C | yeast gene YHR092C | yeast gene YIL056W | yeast gene YJR077C | yeast gene YKL016C | yeast gene YKR067W | yeast gene YLR081W | yeast gene YNR072W | yeast gene YOL163W | yeast gene YOR332W
1.5: yeast gene YKR039W
2.0: yeast gene YHL040C
0.8: yeast gene YBR068C | yeast gene YDL210W | yeast gene YDR039C | yeast gene YGR082W | yeast gene YGR096W | yeast gene YJR121W | yeast gene YMR011W | yeast gene YOR273C | yeast gene YPL134C | yeast gene YPL271W | yeast gene YPR124W
0.6: yeast gene YGR138C | yeast gene YGR224W | yeast gene YGR260W
1.7: yeast gene YEL065W | yeast gene YER053C | yeast gene YNL055C
0.5: yeast gene YGR065C | yeast gene YLR295C | yeast gene YML116W | yeast gene YPL036W | yeast gene YPR192W
0.7: yeast gene YCR037C | yeast gene YDR038C | yeast gene YDR086C | yeast gene YER119C | yeast gene YGL255W | yeast gene YGR191W | yeast gene YHR026W | yeast gene YLL055W | yeast gene YMR162C | yeast gene YMR203W | yeast gene YNL259C | yeast gene YOR270C | yeast gene YOR348C | yeast gene YPR194C
1.1: yeast gene YBR298C | yeast gene YCL025C | yeast gene YDR298C | yeast gene YEL063C | yeast gene YFL041W | yeast gene YGL104C | yeast gene YGL167C | yeast gene YJL219W | yeast gene YKL146W | yeast gene YOR035C | yeast gene YOR316C
1.8: yeast gene YOR328W
